Measurements published in ChEMBL document CHEMBL1201862, “PubChem BioAssay data set” (2004).
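Dose response: 5 concentrations. Exposure: 48 h. Format: 96-well plates. Endpoint: linear interpolation; highest concentration if not reached. At the GI50, growth is halved.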 Calls of active or inactive are those of the source. No stated cut-off is given here; in the data, active = GI50 up to about 1.1 µM and inactive = higher.

How the values were obtained:
Assay in all cases: growth of human tumour cells (NCI), 48 h
[1] = test system: SK-OV-3
[2] = test system: HT-29
[3] = test system: NCI-H226
[4] = test system: SF-268
[5] = test system: UACC-257
[6] = test system: T47D
[7] = test system: HCT-15
[8] = test system: MOLT-4
[9] = test system: OVCAR-8
[10] = test system: SF-295
[11] = test system: TK-10
[12] = test system: HOP-62
[13] = test system: UACC-62
[14] = test system: SF-539
[15] = test system: HL-60
[16] = test system: NCI-H23
[17] = test system: BT-549
[18] = test system: SNB-19
[19] = test system: CCRF-CEM
[20] = test system: SK-MEL-5

Row | Compound | GI50 [1] | GI50 [2] | GI50 [3] | GI50 [4] | GI50 [5] | GI50 [6] | GI50 [7] [µM] | GI50 [8] | GI50 [9] | GI50 [10] | GI50 [11] | GI50 [12] | GI50 [13] | GI50 [14] | GI50 [15] | GI50 [16] | GI50 [17] | GI50 [18] | GI50 [19] | GI50 [20]
1 | O=C(CCCc1ccccn1)c1ccccc1 | > 100 µM (inactive) | > 100 µM (inactive) | > 100 µM (inactive) | > 100 µM (inactive) | > 100 µM (inactive) | > 100 µM (inactive) | > 100 | > 100 µM (inactive) | > 100 µM (inactive) | > 100 µM (inactive) | > 100 µM (inactive) | > 100 µM (inactive) | > 100 µM (inactive) | > 100 µM (inactive) | > 100 µM (inactive) | > 100 µM (inactive) | > 100 µM (inactive) | > 100 µM (inactive) | > 100 µM (inactive) | > 100 µM (inactive)
2 | CN1N=C(N)c2cn(C3OC(COP(=O)(O)O)C(O)C3O)c3ncnc1c23 (centres undefined) | 0.822 µM (active) | 17.3 µM (inactive) | 7.41 µM (inactive) | 55.6 µM (inactive) | 152 µM (inactive) | 0.5 µM (active) | 19.7 | 0.622 µM (active) | 1.28 µM (inactive) | 144 µM (inactive) | 2.88 µM (inactive) | 23.5 µM (inactive) | 28.4 µM (inactive) | 32.4 µM (inactive) | 1.65 µM (inactive) | 25.9 µM (inactive) | 7.48 µM (inactive) | 53.3 µM (inactive) | 13 µM (inactive) | 1080 µM (inactive)
3 | Cc1ccc(S(=O)(=O)N2C[C@@H]3CC[C@]4(CO[Si](C)(C)C(C)(C)C)N[C@@H](c5ccccc5)[C@H]2[C@H]34)cc1 | 68.1 µM (inactive) | 13.2 µM (inactive) | 14.4 µM (inactive) | 45.7 µM (inactive) | 23.9 µM (inactive) | 8.18 µM (inactive) | 24.7 | 19 µM (inactive) | 39.7 µM (inactive) | 24.9 µM (inactive) | 38.5 µM (inactive) | 44.2 µM (inactive) | 56.4 µM (inactive) | 32.4 µM (inactive) | 12.7 µM (inactive) | 11.4 µM (inactive) | 20.4 µM (inactive) | 61.4 µM (inactive) | 43.2 µM (inactive) | 13.8 µM (inactive)
4 | Cc1cc(C)c2c(=O)cc(-c3ccccc3)[nH]c2c1 | 2.52 µM (inactive) | 1.17 µM (inactive) | 9.66 µM (inactive) | 7.82 µM (inactive) | 21.7 µM (inactive) | 12.5 µM (inactive) | 0.828 | 2.96 µM (inactive) | 3.66 µM (inactive) | 3.63 µM (inactive) | 7.05 µM (inactive) | 5.14 µM (inactive) | 1.6 µM (inactive) | 2.31 µM (inactive) | 0.479 µM (active) | 2.66 µM (inactive) | 7.45 µM (inactive) | 5.43 µM (inactive) | 1.49 µM (inactive) | 1.3 µM (inactive)
5 | O=c1oc2ccccc2cc1-c1nc2ccccc2c(=O)[nH]1 | > 100 µM (inactive) | > 100 µM (inactive) | > 100 µM (inactive) | > 100 µM (inactive) | > 100 µM (inactive) | > 100 µM (inactive) | > 100 | > 100 µM (inactive) | > 100 µM (inactive) | 54 µM (inactive) | > 100 µM (inactive) | > 100 µM (inactive) | > 100 µM (inactive) | > 100 µM (inactive) | 21.9 µM (inactive) |  | 77.8 µM (inactive) | > 100 µM (inactive) | > 100 µM (inactive) | > 100 µM (inactive)
6 | CC[C@@]1(O)C(=O)OCc2c1cc1n(c2=O)Cc2c-1nc1ccccc1c2/C=N\NC(=O)C(N)CC(C)C (some centres undefined) | < 0.0212 µM (active) | 0.228 µM (active) | 0.0277 µM (active) | < 0.01 µM (active) | 0.0536 µM (active) | < 0.01 µM (active) | 0.24 | < 0.01 µM (active) | < 0.0132 µM (active) | < 0.01 µM (active) | 3.12 µM (inactive) | < 0.01 µM (active) | < 0.01 µM (active) | < 0.01 µM (active) | < 0.01 µM (active) | < 0.01 µM (active) | 0.0382 µM (active) | < 0.01 µM (active) | < 0.01 µM (active) | < 0.0128 µM (active)
7 | COc1ccc(N2CN3OC(=O)N(c4ccc(OC)cc4)[C@@]3(c3ccccc3)C2)cc1 | 20.8 µM (inactive) | 6.49 µM (inactive) | 47.6 µM (inactive) | 73.6 µM (inactive) | 26.5 µM (inactive) | 14.3 µM (inactive) | 5.18 | 7.23 µM (inactive) | 33.3 µM (inactive) | 16.5 µM (inactive) | 30.8 µM (inactive) | 32.6 µM (inactive) | 13.6 µM (inactive) | 17 µM (inactive) | 2.77 µM (inactive) | 23.6 µM (inactive) | 21.5 µM (inactive) | 44 µM (inactive) | 6 µM (inactive) | 11.9 µM (inactive)
